In US4837227A, “Aminoalkylthiodibenzoxepins and pharmaceutical use” (Hoechst-Roussel Pharmaceuticals, Inc., priority 1985, dated 1989):
Where a name gives a salt, the structure may show the parent alone. Read-outs that look alike come from different tables or passages of the source. One block for each compound: values may come before it.

Experiments:
[1] = tested on: supramaximal electro shock in mice; experiment: protection from supramaximal electro shock in mice (anticonvulsant); format: in vivo; conditions: Mus musculus, ip, intraperitoneal dose, read-out: ED50, approximately 50% protective from the effect of supramaximal electro shock
From the text: Compounds of the present invention are still further useful as anticonvulsant agents for mammals, as determined by the method of Woodbury, L. A. and Davenport, V. D., in Arch. Int. Pharmacodynam, Vol. 92. (1952) at pages 97 to 107. Thus, for instance, the following intraperitoneal doses at which an approximately 50% protective (ED50) from the effect of supramaximal electro shock in mice are: […]

[2] = tested on: tetrabenazine-induced depression (ptosis) in mice; experiment: inhibition of tetrabenazine-induced depression (ptosis) in mice; format: in vivo; conditions: Mus musculus, read-out: ED50, 50% inhibition of the ptosis of the tetrabenazine-induced depression
From the text: Thus, for instance, the intraperitoneal dose at which the following compounds effect a 50% inhibition of the ptosis of the tetrabenazine-induced depression (ED50) in mice are: […]

tail flick in mice = experiment: modified D'Amour-Smith analgesia (tail flick) assay; format: in vivo, male mice (Charles River: CD-1); conditions: generally s.c.
From the text: Analgesic Activity Modified D'Amour-Smith Assay (Tail Flick)
Male mice (Charles River: CD-1) from 18-30 grams were used as test subjects. The mouse tails were individually placed on a "Vee" block and, subsequently, a painful stimulus was produced by an intense light beam (Emdie Instrument Co., Louisa, VA). The subject quickly responds to the noxious stimuli by flicking its tail. The reaction time, the interval between stimulus onset and response, was automatically measured in 1/10-second increments. Prior to drug administration, two control readings of reaction time were measured for each subject with approximately 15 minutes separating the tests. Subjects were discarded if their reaction times in these control tests varied by more than one second or if their inclusion in the study group caused the spread of reaction time to exceed three seconds.
The mean response time (x) and the standard deviation (SD) of the values were then calculated for each set of control scores. The formula presented below was used to calculate cut-off values (C.O.) for each set of control scores and the average of these C.O. values was used to determine evidence of analgesic activity in subsequent drug testing.
The C.O. value was actually a determination of a reaction time which exceeds the mean by two standard deviations. Any reaction time, in subsequent drug tests, which was greater than the C.O. value, therefore exceeds 95% of a normal Gaussian distribution and was called a "positive response" indicative of analgesic activity. Latency changes were calculated by subtracting the tail flick latency of the average control times from the latency after treatment for each mouse.
Compounds were tested in treatment groups of ten subjects and drugs, prepared in distilled water, were generally administered subcutaneously (s.c.) in volumes equivalent to 10 cc/kg. The initial testing was usually in the form of a time response at intervals of 15, 30, 45 and 60 minutes after dosing. If analgesic activity was still increasing at 60 minutes, then two additional groups were tested at 90 minute and 120 minute post dosing.
A time response indicated the period of greatest analgesic effect after dosing. Percent analgesic activity was calculated in the following manner: [formula] Grp.=Group Veh.=Vehicle
The ED50 was determined at the peak time of drug activity. A minimum of three dose groups were employed. Drugs were administered in a randomized manner. ED50 's were calculated using Litchfield-Wilcoxon (LITWL on PDP II) computer analysis.

[3] = tested on: climbing behavior induced by apomorphine in mice; experiment: apomorphine-induced climbing mice assay (neuroleptic activity); format: in vivo, CD-1 male mice; conditions: intraperitoneally 30 minutes prior to apomorphine 1.5 mg/kg s.c.
Procedure: Central Nervous System Depressant (Neuroleptic) Activity Climbing Mice Assay
The subject CD-1 male mice (23-27 grams) were group-housed under standard laboratory conditions. The mice were individually placed in wire mesh stick cages (4"×4"×10") and were allowed one hour for adaptation and exploration of the new environment. Then apomorphine was injected subcutaneously at 1.5 mg/kg, a dose causing climbing in all subjects for 30 minutes. Compounds to be tested for neuroleptic activity were injected intraperitoneally 30 minutes prior to the apomorphine challenge at a screening dose of 10 mg/kg.
For evaluation of climbing, 3 readings were taken at 10, 20 and 30 minutes after apomorphine administration according to the following scale:
Mice consistently climbing before the injection of apomorphine were discarded.
With full-developed apomorphine climbing, the animals were hanging onto the cage walls, rather motionless, over longer periods of time. By contrast, climbs due to mere motor stimulation usually only lasted a few seconds.
The climbing scores were individually totaled (maximal score: 6 per mouse over 3 readings) and the total score of the control group (vehicle intraperitineally -- apomorphine subcutaneously) was set to 100%.

[4] = tested on: phenyl-p-quinone writhing in mice; experiment: phenyl-p-quinone writhing assay in mice (analgesia); format: in vivo; conditions: Mus musculus, sc, subcutaneous dose, read-out: ED50, approximately 50% inhibition of writhing
From the text: Compounds of the invention are further useful as analgesic agents due to their ability to alleviate pain in mammals. […] Exptl. Biol Med., 95 729 (1957)]. Thus for instance, the subcutaneous dose effecting an approximately 50% inhibition of writhing (ED50) in mice produced in this assay is as follows: […]

[5] = stability study, gas chromatographic assay (acid stability); format: physicochemical
Procedure: Gas chromatographic conditions were established under which 2-fluoro-11-[β-(dimethylamino)ethoxy]dibenz[b,f]oxepin (as the hydrobromide or hydrochloride salts), 2-fluoro-11-[β-(dimethylamino)ethylthio]dibenz[b,f]oxepin (as the hydrobromide salt) and 10,11-dihydro-10-oxodibenz[b,f]oxepin were separated:
Column-Glass 2m×2mm ID packed with 3% OV-225 on 80/100 supelcoport
Temperature: Isothermal at 220° C.
Flow Rate: He at 45 ml/min
Instrument: Perkin-Elmer 3920B
Solutions of 2-fluoro-11-[β-(dimethylamino)ethoxy]dibenz[b,f]oxepin and 2-fluoro-11-[β-(dimethylamino)ethylthio]dibenz[b,f]oxepin were prepared in water at a concentration of 200 mg/100 ml. Portions of these stock aqueous solutions were used in each of the following experiments. All aqueous samples were prepared for gas chromotographic (GC) injection by first adding sodium carbonate solution to adjust the pH to 9 and then extracting with ethyl acetate. The ethyl acetate layer was separated and 2.0μ of it were injected.
II. Acidification of 2.0 ml of 2-fluoro-11-[β-(dimethylamino)ethoxy]dibenz[b,f]oxepin stock solution with 0.2 ml of concentrated hydrochloric acid and standing at ambient temperature produced increases in the levels of 10,11-dihydro-10-oxodibenz[b,f]oxepin beyond the 0.2% level initially contaminating the sample of 2-fluoro-11-[β-(dimethylamino)ethoxy]dibenz[b,f]oxepin.
III. Simultaneous experiments were performed using 2.0 ml of each stock solution of […] and 2-fluoro-11-[β-(dimethylamino)ethylthio]dibenz[b,f]oxepin in individual test tubes. Acidification of each solution with 0.2 ml of concentrated hydrochloric acid and side by side warming (not reflux) for 2 minutes (electric heat gun) produced a visible change.

[6] = M. Protvia, et al. Il Farmaco XXI, 98 (1966); cited from earlier work
[7] = 0.2 ml concentrated hydrochloric acid, warming (not reflux) for 2 minutes

Structure (SMILES): CN(C)CCSC1Cc2ccccc2Oc2ccc(Cl)cc21.O=C(O)C(=O)O (stereo not drawn) [2-chloro-10,11-dihydro-11-[β-(dimethylamino)-ethylthio]-dibenz[b,f]oxepin oxalate]
ED50 [1]: 19.4 mg/kg | ED50 ([2]; ip, intraperitoneal dose): 3.5 mg/kg

Structure (SMILES): CN(C)CCSC1=Cc2ccccc2Oc2ccc(Cl)cc21 [2-chloro-11-[β-(dimethylamino)ethylthio]dibenz[b,f]oxepin]
Analgesic Activity (%) (tail flick in mice; dose 25 mg/kg): 20% | Activity (% Inhibition of Climbing) ([3]; 10 mg/kg): 5%

Structure (SMILES): CN(C)CCSC1Cc2ccccc2Oc2ccc(F)cc21.O=C(O)C(=O)O (stereo not drawn) [2-fluoro-10,11-dihydro-11-[β-(dimethylamino)ethylthio]dibenz[b,f]oxepin oxalate]
ED50 [1]: 9 mg/kg | ED50 ([2]; oral dose (footnote *)): 7.6 mg/kg | ED50 [4]: 1.9 mg/kg

visible change of the acidified solution on warming [5, 7]: became white and cloudy | decomposition on reflux after addition of concentrated hydrochloric acid ([5]; 25 ml stock + 2.5 ml concentrated hydrochloric acid, further reflux 10 mins, to 10,11-dihydro-10-oxodibenz[b,f]oxepin): complete decomposition | decomposition on reflux of aqueous stock solution ([5]; water, 200 mg/100 ml, reflux, 45 minutes): no apparent decomposition | degraded at 2 min ([5]; water, concentrated hcl, 0.2 ml concentrated hydrochloric acid, warming (not reflux) for 2 minutes, read-out: decomposed to 10,11-dihydro-10-oxodibenz[b,f]oxepin by GC analysis): 87.2% | degraded at 2 min ([5]; water, concentrated hcl, 2 min, ambient temperature, 2.0 ml stock + 0.2 ml concentrated hydrochloric acid, product 10,11-dihydro-10-oxodibenz[b,f]oxepin, read-out: % Increase in decomposition product): 0.35% | degraded at 1 h ([5]; water, concentrated hcl, 60 min, ambient temperature, 2.0 ml stock + 0.2 ml concentrated hydrochloric acid, product 10,11-dihydro-10-oxodibenz[b,f]oxepin, read-out: % Increase in decomposition product): 2.16% | degraded at 140 min ([5]; water, concentrated hcl, 140 min, ambient temperature, 2.0 ml stock + 0.2 ml concentrated hydrochloric acid, product 10,11-dihydro-10-oxodibenz[b,f]oxepin, read-out: % Increase in decomposition product): 3%
Structure (SMILES): CN(C)CCOC1=Cc2ccccc2Oc2ccc(F)cc21 [2-fluoro-11-[β-(dimethylamino)ethoxy]dibenz[b,f]oxepin]

Structure (SMILES): Br.CN(C)CCSC1=Cc2ccccc2Oc2ccc(F)cc21 [2-fluoro-11-[β-(dimethylamino)ethylthio]dibenz[b,f]oxepin hydrobromide]
ED50 [1]: 9.2 mg/kg | ED50 ([2]; ip, intraperitoneal dose): 4.3 mg/kg

Structure (SMILES): CN(C)CCSC1=Cc2ccccc2Oc2ccc(F)cc21 [2-fluoro-11-[β-(dimethylamino)ethylthio]dibenz[b,f]oxepin]
Analgesic Activity (%) (tail flick in mice; dose 23.9 mg/kg): 50% | decomposition by GC analysis (in words) [5, 7]: did not decompose | visible change of the acidified solution on warming [5, 7]: remained clear and colorless | Activity (% Inhibition of Climbing) ([3]; 10 mg/kg): 10%

Structure (SMILES): CNCCSC1=Cc2ccccc2Oc2ccc(F)cc21.O=C(O)/C=C\C(=O)O [2-fluoro-11-[β-(methylamino)ethylthio]dibenz[b,f]oxepin maleate]
ED50 [1]: 9.9 mg/kg | ED50 ([2]; ip, intraperitoneal dose): 0.3 mg/kg | ED50 [4]: 2.3 mg/kg

Structure (SMILES): CNCCSC1=Cc2ccccc2Oc2ccc(F)cc21 [2-fluoro-11-[β-(methylamino)ethylthio]dibenz[b,f]oxepin]
Analgesic Activity (%) (tail flick in mice; dose 11.3 mg/kg): 50%

Structure (SMILES): CN(C)CCSC1Cc2ccccc2Oc2ccccc21 (stereo not drawn) [10,11-dihydro-10-[β-(dimethylamino)ethylthio[dibenz[b,f]oxepin oxalate]
ED50 [1]: 7.7 mg/kg | ED50 ([2]; ip, intraperitoneal dose): 7 mg/kg

Structure (SMILES): CNCCSC1=Cc2ccccc2Oc2ccccc21.O=C(O)C(=O)O [10-[β(methylamino)ethylthio]dibenz[b,f]oxepin oxalate]
ED50 [1]: 21 mg/kg | ED50 ([2]; ip, intraperitoneal dose): 3.4 mg/kg | ED50 [4]: 2.3 mg/kg

Structure (SMILES): CN(C)CCSC1=Cc2ccccc2Oc2ccccc21 [10-[β-(dimethylamino)ethylthio]dibenz[b,f]oxepin]
Analgesic Activity (%) (tail flick in mice; dose 25 mg/kg): 30% | Activity (% Inhibition of Climbing) ([3]; 15 mg/kg): 20%

Structure (SMILES): CNCCSC1=Cc2ccccc2Oc2ccccc21 [10-[β-(methylamino)ethylthio]dibenz[b,f]oxepin]
Analgesic Activity (%) (tail flick in mice; dose 11.6 mg/kg): 50%

Structure (SMILES): CSc1ccc2c(c1)C(SCCN(C)C)=Cc1ccccc1O2 [11-[β-(dimethylamino)ethylthio]-2-(methylthio)dibenz[b,f]oxepin]
Analgesic Activity (%) (tail flick in mice; dose 14.1 mg/kg): 50% | Activity (% Inhibition of Climbing) ([3]; 10 mg/kg): 18%

Structure (SMILES): CN(C)CCOC1Cc2ccccc2Sc2ccc(Cl)cc21 (centres unmarked) [Amethoclothepine]
central depressant activity (in words) [6]: central depressant activity
